Counter-ions that a name gives are not always drawn.
System: Human Platelet Rich Plasma
Assay: ADP induced Aggregation of Human Platelet Rich Plasma
Type: cell-based
Conditions: 37° C., half-maximal inhibition, read-out: Human Platelet Agg IC50
Description: Healthy aspirin free donors were randomly selected from a pool of volunteers. The harvesting of platelet rich plasma and subsequent ADP induced platelet aggregation assays were performed as described in Zucker, M. B., "Platelet Aggregation Measured by the Photometric Method", Methods in Enzymology 169(1989):117-133. Standard venipuncture techniques using a butterfly allowed the withdrawal of 45 mL of whole blood into a 60 mL syringe containing 5 mL of 3.8% trisodium citrate. Following thorough mixing in the syringe, the anti-coagulated whole blood was transferred to a 50 mL conical polyethylene tube. The blood was centrifuged at room temperature for 12 minutes at 200 xg to sediment non-platelet cells. Platelet rich plasma was removed to a polyethylene tube and stored at room temperature until used. Platelet poor plasma was obtained from a second centrifugation of the remaining blood at 2000 xg for 15 minutes. Platelet counts are typically 300,000 to 500,000 per microliter. Platelet rich plasma (0.45 mL) was aliquoted into siliconized cuvettes and stirred (1100 rpm) at 37° C. for 1 minute prior to adding 50 uL of pre-diluted test compound. […] Aggregation was recorded for 3 minutes in a Payton dual channel aggregometer (Payton Scientific, Buffalo, N.Y.). […] All compounds were tested in duplicate and half-maximal inhibition (IC50) was calculated graphically from the dose response curve.

IC50 [µM] | SMILES
200 | N=C(N)NCCCC(=O)NCCC(=O)NC(CC(=O)O)c1cccnc1 (racemic) [Example 5, (±) β-[[3-[[4-[(aminoiminomethyl)amino]-1-oxobutyl]amino]-1-oxopropyl]amino]-3-pyridinepropanoic acid, bistrifluoroacetate salt]
20 | N=C(N)NCCCCC(=O)NCC(=O)NC(CC(=O)O)c1cccnc1 (stereo not drawn) [Example 1, β-[[2-[[5-[(aminoiminomethyl)amino]-1-oxopentyl]amino]-1-oxoethyl]amino]-3-pyridinepropanoic acid, bistrifluoroacetate salt]

From patent US5798370A, “Platelet aggregation inhibitors” (G. D. Searle & Co., priority 1996, dated 1998)
